{
  "source": "paper PMC5318895",
  "about": "“Inhibition of N1-Src kinase by a specific SH3 peptide ligand reveals a role for N1-Src in neurite elongation by L1-CAM” (Scientific Reports, 2017)",
  "key": {"N1-Src [1]": {"test_system": "N1-Src", "assay": "isoform specificity of N1-Src shRNA co-expressed with C-, N1- or N2-Src in COS7 cells", "type": "cell-based, rat", "conditions": "COS7, co-transfected 72 h with C-, N1- or N2-Src-FLAG; anti-FLAG immunoblot"}, "hippocampal neurons": {"test_system": "hippocampal neurons", "assay": "neurite growth of hippocampal neurons after N1-Src shRNA knockdown", "type": "cell-based, rat", "conditions": "pSUPER-GFP shRNA, 48 h and 96 h post-transfection, versus empty plasmid or non-targeting shRNA, n = 90 neurons, Kruskal-Wallis", "description": "We next took advantage of the specificity of PDN1 to investigate the role of endogenous N1-Src in neurite outgrowth in cultured neurons. CFP-PDN1 or -PDN1(P5A) was transfected into 1 DIV CGNs and their morphology analysed after […]. During CGN development in vivo and immediately after plating in vitro, the cells grow two processes before polarising to yield a single axon and the second process retracts to become a dendrite and further dendrites are initiated. The axon then extends further before bifurcating. […] To further confirm that N1-Src regulates neurite growth we employed an shRNA expressing plasmid (pSUPER-GFP) to knockdown N1-Src in neurons. […] The successful N1-Src shRNA plasmid was transfected into hippocampal neurons, and the length of the longest neurite in GFP-positive neurons was assessed at 48 h and 96 h post-transfection. […] Thus, perturbing N1-Src activity with PDN1 or knockdown of the protein produces the same neurite phenotype in primary neuronal cultures.\nFigure 5 Knockdown of N1-Src phenocopies the action of PDN1 in cultured neurons. […] (c,d) Cultured hippocampal neurons transfected with pSUPER-GFP (control) or pSUPER-GFP encoding N1-Src specific shRNA were analysed for length of longest neurite at 48 or 96 h. […] Data were normalised to the 48 h control and plotted as mean ± SEM, n = 90 neurons, with 30 cells analysed per condition in 3 independent experiments. […]"}, "N1-Src [2]": {"biological_target": "T1, N1-Src (Rattus norvegicus, UniProt Q9WUD9)", "assay": "inhibition of N1-Src phosphorylation of GST-Y by free soluble peptide", "type": "biochemical", "set-up": "His; made in house; host or cells: E. coli", "conditions": "free soluble peptide titrated with 5 nM N1-Src and GST-Y; phosphotyrosine immunoblot densitometry; n = 3", "description": "Previous studies have shown that soluble SH3 ligands can enhance Src family kinase activity in vitro[20][21]. […] This experiment raised the possibility that PDN1 could act as an N1-Src inhibitor in cells. […] We observed that COS7 cells transfected with N1-Src-FLAG underwent a striking change in morphology within 48 h (Fig. 3a). Similar to that previously observed in Xenopus epithelial cells, overexpression of the kinase induced the growth of neurite-like processes (Fig. 3b) and an approximate 35% reduction in area of the cell soma (Fig. 3c). […] Using cell morphology as a readout, we assessed the effect of CFP-PDN1 and PDN1(P5A) on N1-Src activity in cells. […] We also assessed the effect of PDN1 on N2-Src expressing cells because the first five amino acids of its SH3 insert are identical to that in N1-Src[3].\nFigure 2 PDN1 inhibits N1-Src activity in vitro. GST-Y was incubated with 5 nM N1-Src and the indicated concentrations of either PDN1 or PDN1(P5A) and the extent of phosphorylation determined by densitometry of phosphotyrosine immunoreactivity. […]\nPhosphorylation reactions were performed as previously described, prepared in kinase reaction buffer (100 mM Tris, 10 mM MgCl2, pH 7.5) and initiated by the addition of pre-warmed ATP (0.5 mM final concentration) and incubated at 30 °C for the indicated times. […] Due to the non-quantitative measurement of V, Vmax was not determined. […]"}, "N1-Src [3]": {"biological_target": "T1, N1-Src", "assay": "in vitro kinase assay, N1-Src phosphorylation of GST-Y-PDN substrates", "type": "biochemical", "set-up": "His; made in house; host or cells: E. coli", "conditions": "PDN1 fused to an ideal Src substrate", "description": "Figure 1 Identification of a novel ligand consensus sequence for the N1-Src SH3 domain. (a) Schematic of the kinase assay used to validate the effect of potential SH3 domain ligands on the phosphorylation of an ideal tyrosine motif (Y in bold) located upstream of a 10 aa linker and 12 aa phage peptide. (b) GST-Y-PDN1–6 substrates at 0.3, 0.9, 2.8 or 8.3 μM were phosphorylated in vitro with 5 nM C- or N1-Src at 30 °C and the phosphorylation detected by anti-phosphotyrosine immunoblot. Immunoblots are representative of three independent experiments. (c) Alignment of the phage display peptides ranked by N1-Src selectivity derived from results in (b). Shaded residues represent the common consensus sequence. […] (e) GST-Y-PDN1 substrates with the indicated point mutations (see insert) at 8.3 μM were phosphorylated by 5 nM N1-Src and the extent of phosphorylation was measured by densitometry of phosphotyrosine immunoreactivity. […]\nThe PDN peptides were tested for specificity for the N1-Src SH3 domain using a kinase assay in which a GST fusion of an ideal Src substrate peptide (Y) and a putative SH3 ligand peptide can distinguish SH3 domain specificity (Fig. 1a). Based on our previous study, we chose a range of substrate concentrations at which an enhancement in phosphorylation by docking to canonical peptide ligands for the C-Src SH3 domain can be detected (8.3 μM and below)[12]. […]"}, "C-Src SH3 domain": {"test_system": "C-Src SH3 domain", "conditions": "cited from earlier work", "excerpt": "The PDN1 consensus motif, RxPxxTxK, represents a novel SH3 ligand and lacks a canonical PxxP, thus confirming the six amino acid N1-Src splice insert has a dramatic effect on the structure of its SH3 domain. The ligand binding site in the majority of SH3 domains, including C-Src, comprises three pockets, two of which interact with the core xP motifs and one that adds specificity through binding flanking residues. […] Indeed, one of the few ..."}},
  "data": [
    {"substance": "5′-GGAAGGTGGATGTCAGAGA-3′ (expressed or natural sequence; target site or template, no part of the molecule) [N1-Src shRNA]", "values": [
      {"measurement": "isoform specificity of knockdown", "setting": "N1-Src [1]", "value": "confirmed isoform specificity"},
      {"measurement": "inhibition of neurite growth (length of longest neurite)", "setting": "hippocampal neurons", "value": "significant time-dependent inhibition of neurite growth"}
    ]},
    {"substance": "WHRMPAYTAKYP [PDN1, 12mer peptide derived from a phage display screen of the N1-Src SH3 domain]", "values": [
      {"measurement": "inhibition of GST-Y phosphorylation", "setting": "N1-Src [2]", "value": "inhibited GST-Y phosphorylation in a dose dependent manner"},
      {"measurement": "enhancement of substrate phosphorylation by N1-Src", "setting": "N1-Src [3]", "value": "enhanced the specific in vitro phosphorylation of an ideal substrate by N1-Src"}
    ]},
    {"substance": "RSLRPLPPLPPRPPF [phage display ligand selected by the PI3-kinase SH3 domain]", "values": [
      {"measurement": "binding to the C-Src SH3 domain", "setting": "C-Src SH3 domain", "value": "did not bind the C-Src SH3 domain"}
    ]}
  ]
}
